Results taken from patent US10988477B2 (Merck Patent GmbH, priority 2018, dated 2021).
Read-outs that look alike come from different tables or passages of the source.

How the values were obtained:
[1] = target: intracellular GCN2 (phosphorylation of the GCN2 substrate eIF2α) (Homo sapiens, UniProt Q9P2K8); test: GCN2 cellular inhibition assay (AlphaScreen SureFire P-eIF2α Ser51, borrelidin-treated U2OS cells); assay type: cell-based
Outline: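 First, U2OS cells are plated and left overnight at 37 °C. Next, compounds (from 40 μM final, 4-fold steps) and 10 μM borrelidin are added for 1 h, cells lysed, and phospho-Ser51 eIF2α detected by AlphaScreen bead sandwich. Inhibition is computed versus borrelidin-only wells.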

GCN2 kinase = GCN2 kinase (Homo sapiens, UniProt Q9P2K8); test: GCN2 enzyme inhibition assay (Transcreener ADP2 fluorescence polarization); assay type: biochemical; settings: 280 μM ATP
Outline: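 Kinase activity is followed as ADP formation, measured by fluorescence polarization, using 4 nM enzyme with 280 μM ATP and 200 μM (RS)7 peptide at pH 7.5 and 25 °C for 1 h. Values come from a non-linear tight-binding fit.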

[2] = compounds of Formula II, biomarker assay, phosphorylated eIF2α Ser51 in borrelidin-treated U2OS cells
[3] = compounds of Formula II, 4 nM GCN2 kinase
[4] = compounds of Formula IV, biomarker assay, phosphorylated eIF2α Ser51 in borrelidin-treated U2OS cells
[5] = Enzyme activity for compounds of Formula IV, Ki(app), 25° C.

GCN2 kinase, sequence (Q9P2K8 whole entry): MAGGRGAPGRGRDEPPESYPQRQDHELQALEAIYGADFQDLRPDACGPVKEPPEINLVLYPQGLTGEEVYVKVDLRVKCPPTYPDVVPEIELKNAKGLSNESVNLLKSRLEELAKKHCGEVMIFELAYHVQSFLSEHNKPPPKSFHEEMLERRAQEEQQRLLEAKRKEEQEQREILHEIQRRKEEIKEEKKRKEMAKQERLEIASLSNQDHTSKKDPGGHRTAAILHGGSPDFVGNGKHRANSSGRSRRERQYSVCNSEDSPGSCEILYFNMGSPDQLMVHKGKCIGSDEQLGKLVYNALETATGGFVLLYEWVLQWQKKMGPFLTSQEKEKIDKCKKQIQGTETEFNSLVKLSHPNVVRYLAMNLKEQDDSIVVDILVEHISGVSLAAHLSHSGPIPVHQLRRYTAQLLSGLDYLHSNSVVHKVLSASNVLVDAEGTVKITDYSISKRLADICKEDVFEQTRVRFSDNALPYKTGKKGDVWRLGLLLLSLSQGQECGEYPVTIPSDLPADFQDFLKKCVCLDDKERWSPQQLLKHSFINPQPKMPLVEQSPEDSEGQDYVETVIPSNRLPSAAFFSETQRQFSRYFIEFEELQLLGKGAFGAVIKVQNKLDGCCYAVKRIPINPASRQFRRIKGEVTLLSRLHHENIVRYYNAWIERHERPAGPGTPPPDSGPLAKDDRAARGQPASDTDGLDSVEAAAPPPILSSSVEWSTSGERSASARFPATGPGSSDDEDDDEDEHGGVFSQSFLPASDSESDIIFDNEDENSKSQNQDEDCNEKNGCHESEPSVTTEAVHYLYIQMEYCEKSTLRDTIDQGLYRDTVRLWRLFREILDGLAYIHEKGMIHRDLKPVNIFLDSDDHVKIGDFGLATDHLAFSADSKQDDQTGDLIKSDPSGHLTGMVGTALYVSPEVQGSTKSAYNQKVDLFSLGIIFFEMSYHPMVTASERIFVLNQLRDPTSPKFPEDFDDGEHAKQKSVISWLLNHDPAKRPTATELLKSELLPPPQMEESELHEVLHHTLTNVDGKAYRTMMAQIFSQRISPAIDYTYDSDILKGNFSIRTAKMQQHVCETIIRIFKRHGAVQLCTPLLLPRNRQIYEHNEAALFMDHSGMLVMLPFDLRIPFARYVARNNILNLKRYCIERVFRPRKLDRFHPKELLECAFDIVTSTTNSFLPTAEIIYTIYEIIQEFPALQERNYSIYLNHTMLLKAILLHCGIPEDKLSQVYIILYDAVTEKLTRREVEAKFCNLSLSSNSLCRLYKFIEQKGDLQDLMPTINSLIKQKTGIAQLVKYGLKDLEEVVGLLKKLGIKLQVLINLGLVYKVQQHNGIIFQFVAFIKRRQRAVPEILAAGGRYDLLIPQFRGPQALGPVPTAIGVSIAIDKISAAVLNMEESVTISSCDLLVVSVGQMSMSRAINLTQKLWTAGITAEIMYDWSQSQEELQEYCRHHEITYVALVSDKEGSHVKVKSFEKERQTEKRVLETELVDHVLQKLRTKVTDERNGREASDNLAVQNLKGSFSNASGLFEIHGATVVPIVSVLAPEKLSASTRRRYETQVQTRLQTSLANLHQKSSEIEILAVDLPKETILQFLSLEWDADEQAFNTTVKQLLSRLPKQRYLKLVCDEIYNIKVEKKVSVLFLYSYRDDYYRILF
intracellular GCN2 (phosphorylation of the GCN2 substrate eIF2α), sequence (Q9P2K8 whole entry): as above

| IC50 [1, 2] [nM] | Ki (GCN2 kinase; [3]) [nM] | IC50 [1, 4] [nM] | Ki (GCN2 kinase; [5]) [nM] | Compound | other results |
| --- | --- | --- | --- | --- | --- |
| > 5000 | 10 to 1000 | – | – | NC(=O)C1CN(c2cc(-c3cnc4ccc(C(F)F)nn34)ncn2)c2ccccc21 (stereo not drawn) [II-16, 1-(6-(6-(Difluoromethyl)imidazo[1,2-b]pyridazin-3-yl)pyrimidin-4-yl)indoline-3-carboxamide] | – |
| – | – | > 5000 | 10 to 100 | Cc1[nH]ncc1C1CCCN(c2ccnc(-c3cnc4cnc(C(F)(F)F)cn34)n2)C1 (single isomer, unassigned) [IV-471, 3-(4-(3-(5-Methyl-1H-pyrazol-4-yl)piperidin-1-yl)pyrimidin-2-yl)-6-(trifluoromethyl)imidazo[1,2-a]pyrazine] | – |
| < 500 | < 10 | – | – | CCC1C(CNS(C)(=O)=O)CCCN1c1cc(-c2cnc3ccc(C(F)F)nn23)ncn1 (single isomer, unassigned) [II-416] | – |
| 500 to 5000 | 10 to 1000 | – | – | CN(CC1CC(O)CN(c2cc(-c3cnc4ccc(C(F)F)nn34)ncn2)C1)S(C)(=O)=O (stereo not drawn) [II-235, N-((1-(6-(6-(Difluoromethyl)imidazo[1,2-b]pyridazin-3-yl)pyrimidin-4-yl)-5-hydroxypiperidin-3-yl)methyl)-N-methylmethanesulfonamide] | – |
| > 5000 | 10 to 1000 | – | – | CC1C(CS(C)(=N)=O)CCCN1c1cc(-c2cnc3ccc(C(F)F)nn23)ncn1 (stereo not drawn) [II-488, ((1-(6-(6-(Difluoromethyl)imidazo[1,2-b]pyridazin-3-yl)pyrimidin-4-yl)-2-methylpiperidin-3-yl)methyl)(imino)(methyl)-λ^6-sulfanone] | – |
| 500 to 5000 | 10 to 1000 | – | – | N#CCC(=O)N1CCCC(c2cc(-c3cnc4ccc(C(F)F)nn34)ncn2)C1 (stereo not drawn) [II-30, 3-(3-(6-(6-(Difluoromethyl)imidazo[1,2-b]pyridazin-3-yl)pyrimidin-4-yl)piperidin-1-yl)-3-oxopropanenitrile] | – |
| – | – | 500 to 5000 | < 10 | COc1cc(N2CC(C)NC(c3cn[nH]c3)C2C)nc(-c2cnc3cnc(C(F)(F)F)cn23)n1 (stereo not drawn) [IV-593, 3-(4-(2,5-Dimethyl-3-(1H-pyrazol-4-yl)piperazin-1-yl)-6-methoxypyrimidin-2-yl)-6-(trifluoromethyl)imidazo[1,2-a]pyrazine] | – |
| – | – | > 5000 | 100 to 1000 | O=C1NCC2(CCCN(c3ccnc(-c4cnc5cnc(C(F)F)cn45)n3)CC2)O1 (stereo not drawn) [IV-87, 8-(2-(6-(Difluoromethyl)imidazo[1,2-a]pyrazin-3-yl)pyrimidin-4-yl)-1-oxa-3,8-diazaspiro[4.6]undecan-2-one] | – |
| – | – | < 500 | < 10 | CC1C(c2cn[nH]c2)NCCN1c1ccnc(-c2cnc3cnc(Br)cn23)n1 (single isomer, unassigned) [IV-351, 6-Bromo-3-(4-(2-methyl-3-(1H-pyrazol-4-yl)piperazin-1-yl)pyrimidin-2-yl)imidazo[1,2-a]pyrazine] | – |
| 500 to 5000 | 10 to 1000 | – | – | CS(=O)(=O)NCC1CN(c2cc(-c3cnc4ccc(C(F)F)nn34)ncn2)CC(C2CC2)O1 (stereo not drawn) [II-441, N-((6-Cyclopropyl-4-(6-(6-(difluoromethyl)imidazo[1,2-b]pyridazin-3-yl)pyrimidin-4-yl)morpholin-2-yl)methyl)methanesulfonamide] | – |
| 500 to 5000 | 10 to 1000 | – | – | CC1CN(c2cc(-c3cnc4ccc(C(F)F)nn34)ncn2)CC(CNS(C)(=O)=O)N1 (stereo not drawn) [II-411] | – |
| – | – | – | – | CS(=O)(=O)NCC1CCCN(c2cc(-c3cnn4ccc(C(F)F)nc34)ncn2)C1 (stereo not drawn) [III-2, N-[[1-[6-[5-(Difluoromethyl)pyrazolo[1,5-a]pyrimidin-3-yl]pyrimidin-4-yl]-3-piperidyl]methyl]methanesulfonamide] | IC50 ([1]; compounds of Formula III, U2OS cells, 10 μM borrelidin, 1 h, read-out: GCN2 Biomarker (IC50)): < 500 nM; Ki (GCN2 kinase; compounds of Formula III, 4 nM GCN2 kinase): < 10 nM |
| 500 to 5000 | 10 to 1000 | – | – | CN(C1CCCN(c2cc(-c3cnc4ccc(C(F)F)nn34)ncn2)C1)S(C)(=O)=O (stereo not drawn) [II-455, N-(1-(6-(6-(Difluoromethyl)imidazo[1,2-b]pyridazin-3-yl)pyrimidin-4-yl)piperidin-3-yl)-N-methylmethanesulfonamide] | – |
| – | – | > 5000 | 100 to 1000 | CN(C)S(=O)(=O)C1CCCN(c2ccnc(-c3cnc4cnc(C(F)F)cn34)n2)C1 (stereo not drawn) [IV-170, 1-(2-(6-(Difluoromethyl)imidazo[1,2-a]pyrazin-3-yl)pyrimidin-4-yl)-N,N-dimethylpiperidine-3-sulfonamide] | – |
| 500 to 5000 | 10 to 1000 | – | – | CC1C(CNS(C)(=O)=O)C(F)(F)CCN1c1cc(-c2cnc3ccc(C(F)F)nn23)ncn1 (single isomer, unassigned) [II-302, N-((1-(6-(6-(Difluoromethyl)imidazo[1,2-b]pyridazin-3-yl)pyrimidin-4-yl)-4,4-difluoro-2-methylpiperidin-3-yl)methyl)methanesulfonamide] | – |
| 500 to 5000 | 10 to 1000 | – | – | CS(=O)(=O)N1CC2(CN(c3cc(-c4cnc5ccc(C(F)F)nn45)ncn3)CCO2)C1 [II-273, 8-(6-(6-(Difluoromethyl)imidazo[1,2-b]pyridazin-3-yl)pyrimidin-4-yl)-2-(methylsulfonyl)-5-oxa-2,8-diazaspiro[3.5]nonane] | – |
| – | – | > 5000 | 10 to 100 | FC(F)(F)c1cn2c(-c3nccc(N4CCC(Oc5cn[nH]c5)C4)n3)cnc2cn1 (stereo not drawn) [IV-695, 3-(4-(3-((1H-Pyrazol-4-yl)oxy)pyrrolidin-1-yl)pyrimidin-2-yl)-6-(trifluoromethyl)imidazo[1,2-a]pyrazine] | – |
| 500 to 5000 | 10 to 1000 | – | – | CC1(C)COC(CNS(C)(=O)=O)CN1c1cc(-c2cnc3ccc(C(F)F)nn23)ncn1 (stereo not drawn) [II-457, N-((4-(6-(6-(Difluoromethyl)imidazo[1,2-b]pyridazin-3-yl)pyrimidin-4-yl)-5,5-dimethylmorpholin-2-yl)methyl)methanesulfonamide] | – |
| 500 to 5000 | 10 to 1000 | – | – | CCC1COC(CNS(C)(=O)=O)CN1c1cc(-c2cnc3ccc(C(F)F)nn23)ncn1 (stereo not drawn) [II-267, N-((4-(6-(6-(Difluoromethyl)imidazo[1,2-b]pyridazin-3-yl)pyrimidin-4-yl)-5-ethylmorpholin-2-yl)methyl)methanesulfonamide] | – |
| > 5000 | 10 to 1000 | – | – | CC(NS(C)(=O)=O)C1CN(c2cc(-c3cnc4ccc(C(F)F)nn34)ncn2)CCN1C (stereo not drawn) [II-473, N-(1-(4-(6-(6-(Difluoromethyl)imidazo[1,2-b]pyridazin-3-yl)pyrimidin-4-yl)-1-methylpiperazin-2-yl)ethyl)methanesulfonamide] | – |
| > 5000 | > 1000 | – | – | CC1C(CNS(C)(=O)=O)OCCN1c1cc(-c2cnc3ccc(C(F)F)nn23)ncn1 (single isomer, unassigned) [II-372, N-((4-(6-(6-(Difluoromethyl)imidazo[1,2-b]pyridazin-3-yl)pyrimidin-4-yl)-3-methylmorpholin-2-yl)methyl)methanesulfonamide] | – |
| 500 to 5000 | 10 to 1000 | – | – | CC(=O)Nc1cccc2c1CCN(c1cc(-c3cnc4ccc(C(F)F)nn34)ncn1)C2 [II-218, N-(2-(6-(6-(Difluoromethyl)imidazo[1,2-b]pyridazin-3-yl)pyrimidin-4-yl)-1,2,3,4-tetrahydroisoquinolin-5-yl)acetamide] | – |
| < 500 | < 10 | – | – | NS(=O)(=O)NCC1CCCN(c2cc(-c3cnc4ccc(C(F)F)nn34)ncn2)C1 (single isomer, unassigned) [II-278] | – |
| – | – | > 5000 | 10 to 100 | N#Cc1cn2c(-c3nccc(N4CCCC(c5c[nH]cn5)C4)n3)cnc2cn1 (stereo not drawn) [IV-341, 3-(4-(3-(1H-Imidazol-4-yl)piperidin-1-yl)pyrimidin-2-yl)imidazo[1,2-a]pyrazine-6-carbonitrile] | – |
| – | – | 500 to 5000 | < 10 | CC1C(c2c[nH]cn2)CCCN1c1ccnc(-c2cnc3cnc(C(F)(F)F)cn23)n1 (stereo not drawn) [IV-389, 3-(4-(3-(1H-Imidazol-4-yl)-2-methylpiperidin-1-yl)pyrimidin-2-yl)-6-(trifluoromethyl)imidazo[1,2-a]pyrazine] | – |
| < 500 | < 10 | – | – | CS(=O)(=O)NCC1CCCN(c2cc(-c3cnc4ccc(C(F)F)nn34)ccn2)C1 (stereo not drawn) [II-157, N-((1-(4-(6-(Difluoromethyl)imidazo[1,2-b]pyridazin-3-yl)pyridin-2-yl)piperidin-3-yl)methyl)methanesulfonamide] | – |
| – | – | > 5000 | 100 to 1000 | NS(=O)(=O)N[C@@H]1CCCN(c2ccnc(-c3cnc4cnc(C(F)F)cn34)n2)C1 [IV-181, 6-(Difluoromethyl)-3-[4-[(3R)-3-(sulfamoylamino)-1-piperidyl]pyrimidin-2-yl]imidazo[1,2-a]pyrazine] | – |
| 500 to 5000 | 10 to 1000 | – | – | O=C1NCC2CN(c3cc(-c4cnc5ccc(C(F)F)nn45)ccn3)CCN12 (stereo not drawn) [II-173, 7-(4-(6-(Difluoromethyl)imidazo[1,2-b]pyridazin-3-yl)pyridin-2-yl)hexahydroimidazo[1,5-a]pyrazin-3(2H)-one] | – |
| – | – | < 500 | < 10 | CC1CN(c2ccnc(-c3cnc4cnc(Cl)cn34)n2)C(C)C(c2cn[nH]c2)N1 (single isomer, unassigned) [IV-247, 6-Chloro-3-(4-(2,5-dimethyl-3-(1H-pyrazol-4-yl)piperazin-1-yl)pyrimidin-2-yl)imidazo[1,2-a]pyrazine] | – |
| – | – | 500 to 5000 | 10 to 100 | CC1CN(c2ccnc(-c3cnc4cnc(C(F)(F)F)cn34)n2)C(C)C(c2cn[nH]c2)N1 (single isomer, unassigned) [IV-345, 3-(4-(2,5-Dimethyl-3-(1H-pyrazol-4-yl)piperazin-1-yl)pyrimidin-2-yl)-6-(trifluoromethyl)imidazo[1,2-a]pyrazine] | – |
